Experimental data taken from US20150374691A1, “METHODS AND MATERIALS FOR TREATING ORTHOSTATIC HYPOTENSION OR POSTURAL TACHYCARDIA SYNDROME” (Mayo Foundation for Medical Education and Research, priority 2009, published 2015).

Experiments:
[1] = tested on: patient with Lambert-Eaton myasthenic syndrome who also suffered from orthostatic hypotension; experiment: blood pressure and heart rate response to head-up tilt before and after 3,4-DAP; format: in vivo, human; settings: one patient, after oral administration of 20 mg 3,4-DAP; before administration a significant drop was observed (FIG. 1)
Experimental: FIG. 1 is a graph plotting the blood pressure and heart rate response to head-up tilt in a patient with orthostatic hypotension before (left) and after (right) oral administration of 20 mg of 3,4-DAP.
The effects of administering 3,4-DAP to a patient with orthostatic hypotension were studied. Briefly, the blood pressure and heart rate response to head-up tilt was studied in a patient with Lambert-Eaton myasthenic syndrome who also suffered from orthostatic hypotension before and after oral administration of 20 mg 3,4-DAP. Before administration of 3,4-DAP, a significant orthostatic blood pressure drop was observed after a head-up tilt (FIG. 1, left).

[2] = tested on: patients with myasthenic syndromes; settings: among 132 patients enrolled, cited from earlier work

## Nc1ccncc1N [3,4-DAP, 3,4-diaminopyridine]
[1]
  orthostatic blood pressure drop after a head-up tilt: did not exhibit a significant orthostatic blood pressure drop
[2]; after being on the medication for years, clear cause-effect relationship not established
  seizures: two patients experienced a self-limited seizure
[2]
  complications related to cardiac arrhythmias: no noted complications related to cardiac arrhythmias
